Results: ChEMBL document CHEMBL3885881, “DrugMatrix”

Species on record: Rattus norvegicus
Assay: DrugMatrix - Regimen: Daily Repeat
Format: toxicity, organism-based, Sprague-Dawley
Design: regimen Daily Repeat, gender Male, age 6-8 weeks
Details: in vivo, po, route oral GAVAGE, […]; for ABSOLUTE BASOPHIL / ABSOLUTE EOSINOPHIL / ABSOLUTE LYMPHOCYTE / ABSOLUTE MONOCYTE / ABSOLUTE SEGMENTED NEUTROPHIL / BASOPHIL / EOSINOPHIL / ERYTHROCYTE COUNT / HEMATOCRIT / HEMOGLOBIN / LEUKOCYTE COUNT / LYMPHOCYTE / MEAN CORPUSCULAR HEMOGLOBIN / MEAN CORPUSCULAR HEMOGLOBIN CONCENTRATION / MEAN CORPUSCULAR VOLUME / MONOCYTE / NEUTROPHIL / NUCLEATED RED BLOOD CELLS / PLATELET COUNT: tissue Blood; for ALANINE AMINOTRANSFERASE / ALBUMIN / ALKALINE PHOSPHATASE / ASPARTATE AMINOTRANSFERASE / BLOOD UREA NITROGEN / CARBON DIOXIDE / CHLORIDE / CHOLESTEROL / CREATINE PHOSPHOKINASE / CREATININE / GLUCOSE / LACTATE DEHYDROGENASE / LIPASE / PHOSPHORUS / POTASSIUM / SODIUM / TOTAL BILIRUBIN / TOTAL PROTEIN / URIC ACID: tissue Plasma
[1] = 0 mg/kg, 72 h, dose level Control, time 3 day
[2] = 0 mg/kg, 120 h, dose level Control, time 5 day
[3] = 0.6 mg/kg, 72 h, dose level Low, time 3 day

O=C(O)CCCc1ccc(N(CCCl)CCCl)cc1 [CHLORAMBUCIL]
ABSOLUTE BASOPHIL [1]: 0 CELLS/uL
ABSOLUTE EOSINOPHIL [1]: 104.17 CELLS/uL
ABSOLUTE LYMPHOCYTE [1]: 14547 CELLS/uL
ABSOLUTE MONOCYTE [1]: 292 CELLS/uL
ABSOLUTE SEGMENTED NEUTROPHIL [1]: 1640.17 CELLS/uL
BASOPHIL [1]: 0%
EOSINOPHIL [1]: 0.67%
ERYTHROCYTE COUNT [1]: 5.35 x10E6/uL
HEMATOCRIT [1]: 33.67%
HEMOGLOBIN [1]: 13.38 G/DL
LEUKOCYTE COUNT [1]: 16.58 x10E3/uL
LYMPHOCYTE [1]: 87.5%
MEAN CORPUSCULAR HEMOGLOBIN [1]: 25.05 pg
MEAN CORPUSCULAR HEMOGLOBIN CONCENTRATION [1]: 39.78 G/DL
MEAN CORPUSCULAR VOLUME [1]: 62.97 fL
MONOCYTE [1]: 1.83%
NEUTROPHIL [1]: 10%
NUCLEATED RED BLOOD CELLS [1]: 0 /100WBC
PLATELET COUNT [1]: 1274.5 x10E3/uL
ALANINE AMINOTRANSFERASE [1]: 76.83 u/L
ALBUMIN [1]: 3.97 G/DL
ALKALINE PHOSPHATASE [1]: 347 u/L
ASPARTATE AMINOTRANSFERASE [1]: 97.17 u/L
BLOOD UREA NITROGEN [1]: 14.33 mg/dL
CARBON DIOXIDE [1]: 25.5 mmol/L
CHLORIDE [1]: 100.33 MEQ/L
CHOLESTEROL [1]: 68.67 mg/dL
CREATINE PHOSPHOKINASE [1]: 659.17 u/L
CREATININE [1]: 0.32 mg/dL
GLUCOSE [1]: 160.67 mg/dL
LACTATE DEHYDROGENASE [1]: 271.5 u/L
LIPASE [1]: 11.67 u/L
PHOSPHORUS [1]: 10.65 mg/dL
POTASSIUM [1]: 5.95 MEQ/L
SODIUM [1]: 139.65 MEQ/L
TOTAL BILIRUBIN [1]: 0.2 mg/dL
TOTAL PROTEIN [1]: 5.72 G/DL
URIC ACID [1]: 1.37 mg/dL
ABSOLUTE BASOPHIL [2]: 0 CELLS/uL
ABSOLUTE EOSINOPHIL [2]: 331.5 CELLS/uL
ABSOLUTE LYMPHOCYTE [2]: 15021.67 CELLS/uL
ABSOLUTE MONOCYTE [2]: 376.5 CELLS/uL
ABSOLUTE SEGMENTED NEUTROPHIL [2]: 3070.33 CELLS/uL
BASOPHIL [2]: 0%
EOSINOPHIL [2]: 1.83%
ERYTHROCYTE COUNT [2]: 5.24 x10E6/uL
HEMATOCRIT [2]: 33.22%
HEMOGLOBIN [2]: 13.2 G/DL
LEUKOCYTE COUNT [2]: 18.8 x10E3/uL
LYMPHOCYTE [2]: 79.67%
MEAN CORPUSCULAR HEMOGLOBIN [2]: 25.17 pg
MEAN CORPUSCULAR HEMOGLOBIN CONCENTRATION [2]: 39.73 G/DL
MEAN CORPUSCULAR VOLUME [2]: 63.38 fL
MONOCYTE [2]: 2%
NEUTROPHIL [2]: 16.5%
NUCLEATED RED BLOOD CELLS [2]: 0 /100WBC
PLATELET COUNT [2]: 1142.67 x10E3/uL
ALANINE AMINOTRANSFERASE [2]: 52.5 u/L
ALBUMIN [2]: 3.9 G/DL
ALKALINE PHOSPHATASE [2]: 284.5 u/L
ASPARTATE AMINOTRANSFERASE [2]: 81.33 u/L
BLOOD UREA NITROGEN [2]: 16 mg/dL
CARBON DIOXIDE [2]: 25.33 mmol/L
CHLORIDE [2]: 99.5 MEQ/L
CHOLESTEROL [2]: 74.83 mg/dL
CREATINE PHOSPHOKINASE [2]: 448.33 u/L
CREATININE [2]: 0.37 mg/dL
GLUCOSE [2]: 164.17 mg/dL
LACTATE DEHYDROGENASE [2]: 290.67 u/L
LIPASE [2]: 6.83 u/L
PHOSPHORUS [2]: 11.5 mg/dL
POTASSIUM [2]: 6.28 MEQ/L
SODIUM [2]: 139.5 MEQ/L
TOTAL BILIRUBIN [2]: 0.13 mg/dL
TOTAL PROTEIN [2]: 5.55 G/DL
URIC ACID [2]: 1.12 mg/dL
ABSOLUTE BASOPHIL [3]: 0 CELLS/uL
ABSOLUTE EOSINOPHIL [3]: 134 CELLS/uL
ABSOLUTE LYMPHOCYTE [3]: 11100 CELLS/uL
ABSOLUTE MONOCYTE [3]: 438.67 CELLS/uL
ABSOLUTE SEGMENTED NEUTROPHIL [3]: 1260.67 CELLS/uL
BASOPHIL [3]: 0%
EOSINOPHIL [3]: 1%
ERYTHROCYTE COUNT [3]: 5.4 x10E6/uL
HEMATOCRIT [3]: 34.47%
HEMOGLOBIN [3]: 13.6 G/DL
LEUKOCYTE COUNT [3]: 12.93 x10E3/uL
LYMPHOCYTE [3]: 86%
MEAN CORPUSCULAR HEMOGLOBIN [3]: 25.2 pg
MEAN CORPUSCULAR HEMOGLOBIN CONCENTRATION [3]: 39.43 G/DL
MEAN CORPUSCULAR VOLUME [3]: 63.87 fL
MONOCYTE [3]: 3.33%
NEUTROPHIL [3]: 9.67%
NUCLEATED RED BLOOD CELLS [3]: 0 /100WBC
PLATELET COUNT [3]: 1307.67 x10E3/uL
ALANINE AMINOTRANSFERASE [3]: 68 u/L
ALBUMIN [3]: 3.93 G/DL
ALKALINE PHOSPHATASE [3]: 423 u/L
ASPARTATE AMINOTRANSFERASE [3]: 81.33 u/L
BLOOD UREA NITROGEN [3]: 13.33 mg/dL
CARBON DIOXIDE [3]: 25.33 mmol/L
CHLORIDE [3]: 101 MEQ/L
CHOLESTEROL [3]: 71 mg/dL
CREATINE PHOSPHOKINASE [3]: 316.67 u/L
CREATININE [3]: 0.26 mg/dL
GLUCOSE [3]: 153.33 mg/dL
LACTATE DEHYDROGENASE [3]: 99.67 u/L
LIPASE [3]: 13 u/L
PHOSPHORUS [3]: 11.17 mg/dL
POTASSIUM [3]: 5.8 MEQ/L
SODIUM [3]: 140.37 MEQ/L
TOTAL BILIRUBIN [3]: 0.17 mg/dL
TOTAL PROTEIN [3]: 5.67 G/DL
URIC ACID [3]: 1.1 mg/dL
